Source: paper PMC6982876, “Synthesis of Novel Benzodifuranyl; 1,3,5-Triazines; 1,3,5-Oxadiazepines; and Thiazolopyrimidines Derived from Visnaginone and Khellinone as Anti-Inflammatory and Analgesic Agents” (Molecules, 2020)
Marks after values point to notes of the source that are not given here.

Tests used:
ovine COX-1 = molecular target: T1, ovine COX-1 (Ovis aries, UniProt P05979); assay: In vitro COX inhibitor screening assay (EIA kit, Cayman), COX-1; assay type: biochemical; conditions: mean of two determinations, enzyme kit, read-out: COX1 IC50
T1 construct: purchased Cayman Chemical, Ann Arbor, MI, USA 560131
T1 sequence (P05979 25-600): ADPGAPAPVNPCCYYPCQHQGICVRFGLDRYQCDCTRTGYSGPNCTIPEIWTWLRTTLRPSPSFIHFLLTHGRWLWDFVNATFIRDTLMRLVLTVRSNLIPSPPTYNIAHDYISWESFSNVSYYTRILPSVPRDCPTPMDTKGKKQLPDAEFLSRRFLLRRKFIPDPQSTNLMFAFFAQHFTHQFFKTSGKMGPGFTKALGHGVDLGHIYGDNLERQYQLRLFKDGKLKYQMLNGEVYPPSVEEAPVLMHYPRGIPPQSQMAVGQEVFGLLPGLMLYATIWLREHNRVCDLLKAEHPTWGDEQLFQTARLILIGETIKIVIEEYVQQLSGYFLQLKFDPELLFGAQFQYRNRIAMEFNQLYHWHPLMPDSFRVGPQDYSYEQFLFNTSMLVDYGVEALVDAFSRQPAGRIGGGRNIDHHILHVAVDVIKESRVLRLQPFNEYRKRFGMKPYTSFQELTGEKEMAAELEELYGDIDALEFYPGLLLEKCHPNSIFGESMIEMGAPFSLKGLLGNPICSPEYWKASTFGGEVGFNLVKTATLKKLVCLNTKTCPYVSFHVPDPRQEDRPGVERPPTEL
Method: (§1) Furthermore, the selectivity index for COX-2 (COX-1 IC50 / COX-2 IC50) was calculated for the compounds.

human recombinant COX-2 = molecular target: T2, human recombinant COX-2 (Homo sapiens, UniProt P35354); assay: In vitro COX inhibitor screening assay (EIA kit, Cayman), COX-2; assay type: biochemical; conditions: for COX2 (SI) selectivity index: COX-1 IC50 / COX-2 IC50; for IC50: COX-2, mean of two determinations, enzyme kit, read-out: COX2 IC50
T2 construct: purchased Cayman Chemical, Ann Arbor, MI, USA 560131
T2 sequence (P35354 18-604): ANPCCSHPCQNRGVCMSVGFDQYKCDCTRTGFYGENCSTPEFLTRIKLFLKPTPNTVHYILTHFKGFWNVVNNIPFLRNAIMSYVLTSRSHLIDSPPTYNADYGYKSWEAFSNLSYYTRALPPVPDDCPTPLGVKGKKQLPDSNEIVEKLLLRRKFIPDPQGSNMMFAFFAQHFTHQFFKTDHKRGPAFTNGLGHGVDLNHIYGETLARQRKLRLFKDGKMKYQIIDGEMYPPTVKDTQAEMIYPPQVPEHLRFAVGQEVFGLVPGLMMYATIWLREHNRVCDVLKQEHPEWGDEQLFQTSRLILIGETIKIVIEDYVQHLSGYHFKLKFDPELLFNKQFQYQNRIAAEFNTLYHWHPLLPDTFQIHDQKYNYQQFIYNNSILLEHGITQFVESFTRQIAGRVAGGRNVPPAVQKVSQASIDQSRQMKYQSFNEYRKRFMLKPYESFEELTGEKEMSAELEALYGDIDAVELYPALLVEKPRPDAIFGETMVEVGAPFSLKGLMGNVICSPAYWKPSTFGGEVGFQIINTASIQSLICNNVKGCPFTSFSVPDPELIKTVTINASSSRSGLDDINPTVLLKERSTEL
Method: as §1

[1] = system: acetic acid-induced writhing in mice; assay: Acetic acid-induced writhing test (analgesic activity); assay type: in vivo; conditions: 10 mg/kg p.o., n = 5; for Writhing Number in 20 min (Mean ± SEM): acetic acid 1 h after dosing; for Analgesic Activity (% protection): writhing test
Method: The analgesic activity of the compounds was performed using the writhing test as described by Gawade et al.. Mice weight ranged from 25 to 30 g. Then, mice were divided into 18 different groups, each containing five animals. The animals fasted for 8 h before the experiment. Administration of the compounds (10 mg/kg, p.o.) was performed orally. Equal doses of diclofenac as the reference drug and saline as a negative control were also administrated orally. Writhing was induced one hour after compound administration by using 0.1 mL of 1% glacial acetic acid at a volume of 0.1 mL/10 g body weight. The number of writhing responses (stretching of the abdomen, extension of hind limbs, twisting of the trunk, and elongation of the body) observed was counted for 20 min. The protection percentile against acetic acid-induced writhing was calculated according to the following formula: (1) Analgesic activity (%) =n−n′/n×100* where n is the mean number of writhes of the control group, and n’ is the mean number of writhes of the tested compound group.

[2] = system: carrageenan-induced paw edema in rats; assay: Carrageenan-induced paw edema (anti-inflammatory activity); assay type: in vivo; conditions: 10 mg/kg oral; for % Change in Paw Height (Mean ± SEM): n = 5
Method: Albino rats (150–180 g) were used. The rats were divided into 11 experimental groups of five rats each. One hour after oral administration of the compounds (10 mg/kg), 0.1 mL of 1% carrageenan solution was injected in the left hind paw of each animal. Rat paw volumes were measured with a digital caliber plethysmometer (UGO Basile, Varese, Italy) used to measure inflammation height at 0, 1, 2, and 3 h after carrageenan injection. The percentage increase in inflammation in the left hind paw, in comparison to the uninjected right hind paw, was determined, calculated, and expressed as the amount of inflammation. […] The anti-inflammatory activity of the selected analgesic compounds after 3 h was expressed as percentage inhibition of edema, which was calculated according to the following equation: (2) Inhibition of edema (%) =Vcont−Vtest/Vcont×100* where V cont is the edema volume in the control group, and V test is the edema volume in the group of the screened compound.

[3] = system: interleukin-1 beta (IL-1 β); assay: ELISA of serum interleukin-1 beta after paw edema test; assay type: in vivo, rats; conditions: rat serum at the end of the paw edema test, mean ± SEM, n = 5
Method: IL1 is one of the important inflammatory mediators and is used to confirm the anti-inflammatory activities of new anti-inflammatory compounds. At the end of the paw edema test, blood samples were collected from the orbital axis of the eye under light ether anesthesia. Sera were separated after centrifugation of blood at 5000 rpm for 15 min; the sera were stored at –80 °C until the ELISA assay was performed according to the manufacturer instructions.

SMILES | IC50 (ovine COX-1) [µM] | COX2 (SI) selectivity index (human recombinant COX-2) | IC50 (human recombinant COX-2) [µM] | melting point [°C] | Writhing Number in 20 min (Mean ± SEM) [1] | Analgesic Activity (% protection) [1] | % Change in Paw Height (Mean ± SEM) ([2]; 1 hr after carrageenan) | % Change in Paw Height (Mean ± SEM) ([2]; 2 hr after carrageenan) | Anti-Inflammatory Activity (% Inhibition of Edema) ([2]; 3 hr after carrageenan) [%] | % Change in Paw Height (Mean ± SEM) ([2]; 3 hr after carrageenan) | IL-1 β Concentration [3]
COc1c2ccoc2cc2oc(C3=NC4=CC(=O)N5C(=O)CSC5N4C=N3)c(C)c12 (centres unmarked) [Compound 11a, 8-(4-methoxy-3-methylbenzo[1,2-b:5,4-b`]difuran-2-yl)-2-hydro-5H,11aH-thiazolo[2’,3’: 2,3]pyrimido[1,6-a][1,3,5]triazine-3,5-dione] | 6.85 | 81 | 0.085 | > 350 | 39 ± 2.1 ^a | 36 ± 0.75 ^a % | 0.30 ± 0.02 ^a % | 0.24 ± 0.01 ^a % | 55 | 0.28 ± 0.01 ^a % | 43 ± 1.15 ^b Pg /mL
COc1c2occc2c(OC)c2c(C)c(C3=NC4=CC(=O)N5C(=O)CSC5N4C(=O)CO3)oc12 (centres unmarked) [Compound 12b, 8-(4,8-dimethoxy-3-methylbenzo[1,2-b:5,4-b`]difuran-2-yl)-5H,12aH-thiazolo[2’,3’:2,3] pyrimido[6,1-d][1,3,5]oxadiazepine-3,5,11(2H,10H)-trione] | 6.1 | 87 | 0.07 | > 350 | 34 ± 1.7 ^a | 41 ± 1.10 ^a % | 0.28 ± 0.01 ^a % | 0.22 ± 0.02 ^a % | 58 | 0.25 ± 0.02 ^a % | 40 ± 0.22 ^b Pg /mL
COc1c2occc2c(OC)c2c(C)c(C3=NC4=CC(=O)N5C(=O)CSC5N4C=N3)oc12 (centres unmarked) [Compound 11b, 8-(4,8-dimethoxy-3-methylbenzo[1,2-b:5,4-b`]difuran-2-yl)-2-hydro-5H,11aH-thiazolo [2’, 3’:2,3]pyrimido[1,6-a][1,3,5]triazine-3,5-dione] | 6.6 | 83 | 0.08 | > 350 | 37 ± 2.3 ^a | 38 ± 0.80 ^a % | 0.29 ± 0.01 ^a % | 0.23 ± 0.01 ^a % | 56 | 0.27 ± 0.02 ^a % | 42 ± 0.98 ^b Pg /mL
COc1c2occc2c(OC)c2c(C)c(C3=NC4=CC(=O)N5C(=O)C(=Cc6ccccc6)SC5N4C(=O)C(=Cc4ccccc4)O3)oc12 (centres unmarked) [Compound 13d, 2,10-di(benzylidene)-8-(4,8-dimethoxy-3-methylbenzo[1,2-b:5,4-b`]difuran-2-yl)-5H, 12aH -thiazolo[2’,3’:2,3]pyrimido[6,1-d][1,3,5]oxadiazepine-3,5,11(2H,10H)-trione] | 5.71 | 91 | 0.063 | > 350 | 32 ± 1.4 ^a | 43 ± 1.90 ^a % | 0.26 ± 0.01 ^a % | 0.20 ± 0.02 ^a % | 60 | 0.23 ± 0.02 ^a % | 38 ± 0.62 ^b Pg /mL

Now those with a lower IC50 (ovine COX-1), led by results:

IC50 (ovine COX-1) [µM] | COX2 (SI) selectivity index (human recombinant COX-2) | IC50 (human recombinant COX-2) [µM] | melting point [°C] | SMILES | Writhing Number in 20 min (Mean ± SEM) [1] | Analgesic Activity (% protection) [1] | % Change in Paw Height (Mean ± SEM) ([2]; 1 hr after carrageenan) | % Change in Paw Height (Mean ± SEM) ([2]; 2 hr after carrageenan) | Anti-Inflammatory Activity (% Inhibition of Edema) ([2]; 3 hr after carrageenan) [%] | % Change in Paw Height (Mean ± SEM) ([2]; 3 hr after carrageenan) | IL-1 β Concentration [3]
4.45 | 97 | 0.046 | > 350 | COc1c2occc2c(OC)c2c(C)c(C(=Nc3cc(N4CCOCC4)nc(N4CCOCC4)n3)N3CCOCC3)oc12 [Compound 10d, 1-(4,8-dimethoxy-3-methylbenzo [1,2-b: 5,4-b`]difuran-2-yl)-N-(2,6-dimorpholino-pyrimidin-4-yl)-1-morpholinomethanimine] | 26 ± 1.2 ^a | 49 ± 1.1 ^a % | 0.20 ± 0.01 ^a % | 0.15 ± 0.02 ^a % | 66 | 0.17 ± 0.02 ^a % | 32 ± 0.45 ^b Pg /mL
5.1 | 96 | 0.053 | > 350 | COc1c2occc2c(OC)c2c(C)c(C3=NC4=CC(=O)N5C(=O)C(=Cc6ccc(Cl)cc6)SC5N4C(=O)C(=Cc4ccc(Cl)cc4)O3)oc12 (centres unmarked) [Compound 13e, 2,10-bis(4-chlorobenzylidene)-8-(4,8-dimethoxy-3-methylbenzo[1,2-b:5,4-b`]difuran-2-yl)-5H,12aH-thiazolo[2’,3’:2,3]pyrimido[6,1-d][1,3,5]oxadiazepine-3,5,11(2H,10H)-trione] | 28 ± 1.3 ^a | 47 ± 1.7 ^a % | 0.22 ± 0.01 ^a % | 0.17 ± 0.02 ^a % | 64 | 0.19 ± 0.02 ^a % | 34 ± 0.33 ^b Pg /mL
4.23 | 98 | 0.043 | > 350 | COc1c2ccoc2cc2oc(C(=Nc3cc(N4CCNCC4)nc(N4CCNCC4)n3)N3CCNCC3)c(C)c12 [Compound 10a, N-(2,6-di (piperazin-1-yl)pyrimidin-4-yl)-1-(4-methoxy-3-methylbenzo [1,2-b: 5,4-b`]difuran-2-yl)-1-(piperazin-1-yl) methanimine] | 25 ± 1.3 ^a | 50 ± 1.6 ^a % | 0.19 ± 0.01 ^a % | 0.14 ± 0.02 ^a % | 67 | 0.16 ± 0.02 ^a % | 31 ± 0.55 ^b Pg /mL
